Columns and labels:
Format in all cases: biochemical
[1] = target: T1, human TOR (Homo sapiens, UniProt P42345); assay: mTOR enzyme assay (DELFIA, His6-S6K substrate); details: read-out: mTOR Kinase Avg. IC50
T1 construct: FLAG

[2] = target: PI3K-alpha (Homo sapiens, UniProt P42336); assay: PI3K-alpha fluorescence polarization assay; details: read-out: PI3Kα Avg. IC50
[3] = target: PI3K-gamma (Homo sapiens, UniProt P48736); assay: PI3K-gamma fluorescence polarization assay; details: PI3Kγ Avg. IC50
Sequence of PI3K-gamma (P48736 whole entry, species assumed, the tested form may be a part): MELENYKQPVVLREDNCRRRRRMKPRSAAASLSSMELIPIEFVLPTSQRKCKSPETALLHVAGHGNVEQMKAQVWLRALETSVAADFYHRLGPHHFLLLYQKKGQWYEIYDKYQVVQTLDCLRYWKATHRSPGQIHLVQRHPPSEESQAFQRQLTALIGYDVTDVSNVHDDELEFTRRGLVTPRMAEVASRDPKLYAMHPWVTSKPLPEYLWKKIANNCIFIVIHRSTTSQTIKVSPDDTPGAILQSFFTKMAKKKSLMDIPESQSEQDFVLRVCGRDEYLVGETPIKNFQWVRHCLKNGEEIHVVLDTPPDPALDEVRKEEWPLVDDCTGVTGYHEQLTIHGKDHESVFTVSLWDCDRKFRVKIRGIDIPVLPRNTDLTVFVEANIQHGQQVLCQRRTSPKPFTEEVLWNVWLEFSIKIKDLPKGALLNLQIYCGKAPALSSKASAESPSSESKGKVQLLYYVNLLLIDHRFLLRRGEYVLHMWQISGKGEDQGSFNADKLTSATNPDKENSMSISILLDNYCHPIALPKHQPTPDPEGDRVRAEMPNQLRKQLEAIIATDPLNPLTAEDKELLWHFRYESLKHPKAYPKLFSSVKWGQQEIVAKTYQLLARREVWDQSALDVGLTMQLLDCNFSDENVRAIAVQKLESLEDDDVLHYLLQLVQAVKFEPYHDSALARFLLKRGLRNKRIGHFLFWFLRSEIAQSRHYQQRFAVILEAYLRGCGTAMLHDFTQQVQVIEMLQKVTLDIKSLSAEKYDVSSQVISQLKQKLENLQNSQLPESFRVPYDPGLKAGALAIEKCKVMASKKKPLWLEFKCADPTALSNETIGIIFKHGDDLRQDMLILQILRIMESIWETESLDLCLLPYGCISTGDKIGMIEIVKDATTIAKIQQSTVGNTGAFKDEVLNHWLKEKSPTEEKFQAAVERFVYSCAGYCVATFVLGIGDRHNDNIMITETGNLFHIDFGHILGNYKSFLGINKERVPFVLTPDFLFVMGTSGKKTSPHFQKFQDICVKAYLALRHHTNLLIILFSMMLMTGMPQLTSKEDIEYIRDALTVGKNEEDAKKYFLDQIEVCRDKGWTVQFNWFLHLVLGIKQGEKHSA
Method in brief: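 Enzyme 5 ng; substrate diC8-PI(4,5)P2 2.5 μM; ATP 25 μM; 5 mM HEPES pH 7, 2.5 mM MgCl2; DMSO ≤2%; 1 h, 25° C. Quench 10 mM EDTA. Detect with GRP1 PH domain 100 nM + TMR-IP4 probe 5 nM by polarization.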

Sequence of PI3K-alpha (P42336 whole entry, species assumed): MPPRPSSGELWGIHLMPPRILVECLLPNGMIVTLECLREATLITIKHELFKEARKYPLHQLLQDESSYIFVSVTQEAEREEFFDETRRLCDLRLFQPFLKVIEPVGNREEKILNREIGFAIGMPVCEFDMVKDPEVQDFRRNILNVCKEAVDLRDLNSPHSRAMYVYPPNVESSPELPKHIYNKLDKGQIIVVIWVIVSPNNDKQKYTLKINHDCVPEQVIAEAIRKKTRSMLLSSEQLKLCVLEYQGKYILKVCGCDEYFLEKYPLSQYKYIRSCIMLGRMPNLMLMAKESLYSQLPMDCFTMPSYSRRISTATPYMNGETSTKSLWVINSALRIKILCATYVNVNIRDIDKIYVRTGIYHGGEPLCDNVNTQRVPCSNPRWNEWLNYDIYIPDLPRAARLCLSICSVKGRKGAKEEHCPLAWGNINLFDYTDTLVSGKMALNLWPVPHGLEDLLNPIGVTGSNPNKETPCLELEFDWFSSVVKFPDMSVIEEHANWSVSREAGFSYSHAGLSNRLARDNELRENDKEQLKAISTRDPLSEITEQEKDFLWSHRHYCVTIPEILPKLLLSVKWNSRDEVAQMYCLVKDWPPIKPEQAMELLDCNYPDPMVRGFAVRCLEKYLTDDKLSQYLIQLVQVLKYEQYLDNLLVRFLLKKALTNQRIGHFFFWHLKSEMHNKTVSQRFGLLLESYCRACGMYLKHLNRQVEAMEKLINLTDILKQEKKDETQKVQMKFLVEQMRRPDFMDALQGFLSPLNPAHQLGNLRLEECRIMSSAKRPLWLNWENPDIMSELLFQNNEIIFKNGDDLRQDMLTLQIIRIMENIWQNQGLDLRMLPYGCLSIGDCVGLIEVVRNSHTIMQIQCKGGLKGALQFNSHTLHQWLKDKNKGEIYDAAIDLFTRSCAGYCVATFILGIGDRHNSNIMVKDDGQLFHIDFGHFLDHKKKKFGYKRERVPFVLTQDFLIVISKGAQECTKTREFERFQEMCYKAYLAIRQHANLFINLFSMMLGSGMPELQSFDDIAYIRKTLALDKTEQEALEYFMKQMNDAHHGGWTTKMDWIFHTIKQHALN
Sequence of PI3K-alpha (P27986 whole entry partner, species assumed): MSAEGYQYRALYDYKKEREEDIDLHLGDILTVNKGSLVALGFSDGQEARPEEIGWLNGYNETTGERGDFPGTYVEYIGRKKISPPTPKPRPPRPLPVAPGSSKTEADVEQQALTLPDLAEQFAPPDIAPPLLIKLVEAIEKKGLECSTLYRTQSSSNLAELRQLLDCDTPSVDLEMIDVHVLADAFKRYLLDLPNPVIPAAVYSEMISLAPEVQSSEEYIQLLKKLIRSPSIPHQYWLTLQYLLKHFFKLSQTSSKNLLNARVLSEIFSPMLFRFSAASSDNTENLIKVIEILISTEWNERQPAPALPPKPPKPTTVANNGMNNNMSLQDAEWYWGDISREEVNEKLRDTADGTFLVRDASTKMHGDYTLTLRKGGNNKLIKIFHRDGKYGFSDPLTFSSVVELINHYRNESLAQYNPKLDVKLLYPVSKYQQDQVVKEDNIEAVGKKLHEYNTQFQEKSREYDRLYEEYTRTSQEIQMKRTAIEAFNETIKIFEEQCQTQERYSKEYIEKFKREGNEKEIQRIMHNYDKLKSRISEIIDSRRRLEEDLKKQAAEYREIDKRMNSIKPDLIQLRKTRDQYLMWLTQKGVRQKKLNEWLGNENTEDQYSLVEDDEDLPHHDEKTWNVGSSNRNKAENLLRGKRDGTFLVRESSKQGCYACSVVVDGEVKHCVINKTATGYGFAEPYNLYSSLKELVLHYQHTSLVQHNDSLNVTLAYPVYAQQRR

IC50 [1] [nM]	IC50 [2] [nM]	IC50 [3] [nM]	Structure (SMILES)
90	1120	2040	Cn1cc(/C=C2\Oc3cc(O)cc(O)c3C2=O)c2c(-c3cccc(O)c3)cccc21 [Example 390, (2Z)-4,6-Dihydroxy-2-{[4-(3-hydroxyphenyl)-1-methyl-1H-indol-3-yl]methylene}-1-benzofuran-3(2H)-one]
38.5	1150	2390	COC(=O)Nc1ccc(-c2cccc3c2c(/C=C2\Oc4cc(O)cc(O)c4C2=O)cn3C)cc1 [Example 391, Methyl (4-{3-[(Z)-(4,6-Dihydroxy-3-oxo-1-benzofuran-2(3H)-ylidene)methyl]-1-methyl-1H-indol-4-yl}phenyl)carbamate]
17	453	> 7180	CNC(=O)c1ccc(-c2cccc3c2c(/C=C2\Oc4cc(O)cc(O)c4C2=O)cn3C)cc1 [Example 392, 4-{3-[(Z)-(4,6-dihydroxy-3-oxo-1-benzofuran-2(3H)-ylidene)methyl]-1-methyl-1H-indol-4-yl}-N-methylbenzamide]
23.5	608	2520	CNC(=O)Nc1ccc(-c2cccc3c2c(/C=C2\Oc4cc(O)cc(O)c4C2=O)cn3C)cc1 [Example 393, 1-(4-{3-[(Z)-(4,6-Dihydroxy-3-oxo-1-benzofuran-2(3H)-ylidene)methyl]-1-methyl-1H-indol-4-yl}phenyl)-3-methylurea]
69	460	4120	CN(C)C(=O)Nc1ccc(-c2cccc3c2c(/C=C2\Oc4cc(O)cc(O)c4C2=O)cn3C)cc1 [Example 394, 3-(4-{3-[(Z)-(4,6-dihydroxy-3-oxo-1-benzofuran-2(3H)-ylidene)methyl]-1-methyl-1H-indol-4-yl}phenyl)-1,1-dimethylurea]
95	582	3890	CC(C)NC(=O)c1ccc(-c2cccc3c2c(/C=C2\Oc4cc(O)cc(O)c4C2=O)cn3C)cc1 [Example 395, 4-{3-[(Z)-(4,6-dihydroxy-3-oxo-1-benzofuran-2(3H)-ylidene)methyl]-1-methyl-1H-indol-4-yl}-N-isopropylbenzamide]
30	547	448	Cn1cc(/C=C2\Oc3cc(O)cc(O)c3C2=O)c2c(-c3ccc(C(=O)N4CCCC4)cc3)cccc21 [Example 396, (2Z)-4,6-Dihydroxy-2-({1-methyl-4-[4-(pyrrolidin-1-ylcarbonyl)phenyl]-1H-indol-3-yl}methylene)-1-benzofuran-3(2H)-one]
20	1840	8530	Cn1cc(/C=C2\Oc3cc(O)cc(O)c3C2=O)c2c(-c3ccc(C#N)nc3)cccc21 [Example 397, 5-{3-[(Z)-(4,6-Dihydroxy-3-oxo-1-benzofuran-2(3H)-ylidene)methyl]-1-methyl-1H-indol-4-yl}pyridine-2-carbonitrile]
111	2760	5260	CN(C)c1cccc(-c2cccc3c2c(/C=C2\Oc4cc(O)cc(O)c4C2=O)cn3C)c1 [Example 398, (2Z)-2-({4-[3-(Dimethylamino)phenyl]-1-methyl-1H-indol-3-yl}methylene)-4,6-dihydroxy-1-benzofuran-3(2H)-one]
69.5	805	> 10000	Cn1cc(/C=C2\Oc3cc(O)cc(O)c3C2=O)c2c(-c3ccc(C(=O)NCc4ccco4)cc3)cccc21 [Example 399, 4-{3-[(Z)-(4,6-dihydroxy-3-oxo-1-benzofuran-2(3H)-ylidene)methyl]-1-methyl-1H-indol-4-yl}-N-(2-furylmethyl)benzamide]
61.5	267	2680	Cn1cc(/C=C2\Oc3cc(O)cc(O)c3C2=O)c2c(-c3ccc(NC(=O)NC4CC4)cc3)cccc21 [Example 401, 1-cyclopropyl-3-(4-{3-[(Z)-(4,6-dihydroxy-3-oxo-1-benzofuran-2(3H)-ylidene)methyl]-1-methyl-1H-indol-4-yl}phenyl)urea]
61	935	1650	Cn1cc(/C=C2\Oc3cc(O)cc(O)c3C2=O)c2c(-c3ccc(NC(=O)N4CCOCC4)cc3)cccc21 [Example 404, N-(4-{3-[(Z)-(4,6-dihydroxy-3-oxo-1-benzofuran-2(3H)-ylidene)methyl]-1-methyl-1H-indol-4-yl}phenyl)morpholine-4-carboxamide]
24	1070	> 10000	Cn1cc(/C=C2\Oc3cc(O)cc(O)c3C2=O)c2c(-c3ccccc3N)cccc21 [Example 419, (2Z)-2-{[4-(2-Aminophenyl)-1-methyl-1H-indol-3-yl]methylene}-4,6-dihydroxy-1-benzofuran-3(2H)-one]
31.5	708	> 10000	Cn1cc(/C=C2\Oc3cc(O)cc(O)c3C2=O)c2c(-c3ccc([N+](=O)[O-])cc3)cccc21 [Example 420, (2Z)-4,6-Dihydroxy-2-{[1-methyl-4-(4-nitrophenyl)-1H-indol-3-yl]methylene}-1-benzofuran-3(2H)-one]

Continued, compound first:

Structure (SMILES)	IC50 [1] [nM]	IC50 [2] [nM]	IC50 [3] [nM]
Cn1cc(/C=C2\Oc3cccc(O)c3C2=O)c2c(-c3ccccc3)cccc21 [Example 400, (2Z)-4-Hydroxy-2-[(1-methyl-4-phenyl-1H-indol-3-yl)methylene]-1-benzofuran-3(2H)-one]	> 19500	> 10000	> 10000
Cn1cc(/C=C2\Oc3cc(O)cc(O)c3C2=O)c2c(-c3ccc(NCCN4CCOCC4)nc3)cccc21 [Example 402, (2Z)-4,6-Dihydroxy-2-[(1-methyl-4-{6-[(2-morpholin-4-ylethyl)amino]pyridin-3-yl}-1H-indol-3-yl)methylene]-1-benzofuran-3(2H)-one]	355	3740	5940
Cn1cc(/C=C2\Oc3cc(O)cc(O)c3C2=O)c2c(-c3cnn(CCN4CCOCC4)c3)cccc21 [Example 403, (2Z)-4,6-Dihydroxy-2-({1-methyl-4-[1-(2-morpholin-4-ylethyl)-1H-pyrazol-4-yl]-1H-indol-3-yl}methylene)-1-benzofuran-3(2H)-one]	123	1640	7710
COC(=O)Nc1ccc2c(c1)OC(=Cc1cn(CCCN(C)C)c3ccc(OC)cc13)C2=O [Example 405, Methyl [2-({1-[3-(dimethylamino)propyl]-5-methoxy-1H-indol-3-yl}methylene)-3-oxo-2,3-dihydro-1-benzofuran-6-yl]carbamate]	> 20000	> 10000	> 10000
COc1ccc2c(c1)c(/C=C1\Oc3cc(NC(C)=O)ccc3C1=O)cn2CCCN(C)C [Example 407, N-(2Z)-[2-({1-[3-(Dimethylamino)propyl]-5-methoxy-1H-indol-3-yl}methylene)-3-oxo-2,3-dihydro-1-benzofuran-6-yl]acetamide]	> 20000	> 10000	> 10000
COc1ccc2c(c1)c(/C=C1\Oc3cc(O)cc(O)c3C1=O)c(C1CCCC1)n2CCN1CCN(C)CC1 [Example 410, (2Z)-2-({2-cyclopentyl-5-methoxy-1-[2-(4-methylpiperazin-1-yl)ethyl]-1H-indol-3-yl}methylene)-4,6-dihydroxy-1-benzofuran-3(2H)-one]	0.64	3	116
COc1ccc2c(c1)c(/C=C1\Oc3cc(O)ccc3C1=O)c(C1CCCC1)n2CCN1CCN(C)CC1 [Example 411, (2Z)-2-({2-Cyclopentyl-5-methoxy-1-[2-(4-methylpiperazin-1-yl)ethyl]-1H-indol-3-yl}methylene)-6-hydroxy-1-benzofuran-3(2H)-one]	47	11.5	984
COc1ccc2c(c1)c(/C=C1\Oc3cc(O)ccc3C1=O)c(C(=O)N1CCOCC1)n2CCN1CCN(C)CC1 [Example 412, (2Z)-6-Hydroxy-2-({5-methoxy-1-[2-(4-methylpiperazin-1-yl)ethyl]-2-(morpholin-4-ylcarbonyl)-1H-indol-3-yl}methylene)-1-benzofuran-3(2H)-one]	2800	10.5	888
COc1ccc2c(c1)c(/C=C1\Oc3cc(Br)ccc3C1=O)cn2CCCN(C)C [Example 413, (2Z)-6-bromo-2-({1-[3-(dimethylamino)propyl]-5-methoxy-1H-indol-3-yl}methylene)-1-benzofuran-3(2H)-one]	> 20000	7820	5610
COc1ccc2[nH]cc(/C=C3\Oc4cc(O)ccc4C3=O)c2c1 [Example 414, (2Z)-6-Hydroxy-2-[(5-methoxy-1H-indol-3-yl)methylene]-1-benzofuran-3(2H)-one]	1850	55	281
COc1ccc2c(c1)c(/C=C1\Oc3cc(NC(=O)OC(C)(C)C)ccc3C1=O)cn2CCCN(C)C [Example 417, tert-butyl (2Z)-[2-({1-[3-(dimethylamino)propyl]-5-methoxy-1H-indol-3-yl}methylene)-3-oxo-2,3-dihydro-1-benzofuran-6-yl]carbamate]	> 20000	4740	2100
COc1ccc2c(c1)c(/C=C1\Oc3cc(N)ccc3C1=O)cn2CCCN(C)C [Example 418, (2Z)-6-amino-2-({1-[3-(dimethylamino)propyl]-5-methoxy-1H-indol-3-yl}methylene)-1-benzofuran-3(2H)-one]	10300	1380	9500
COc1ccc2c(c1)c(/C=C1\Oc3cc(NS(C)(=O)=O)ccc3C1=O)cn2CCCN(C)C [Example 422, N-(2Z)-[2-({1-[3-(Dimethylamino)propyl]-5-methoxy-1H-indol-3-yl}methylene)-3-oxo-2,3-dihydro-1-benzofuran-6-yl]methanesulfonamide]	> 20000	9000	7640

Source: US20090311217A1, “3-SUBSTITUTED-1H-INDOLE COMPOUNDS, THEIR USE AS MTOR KINASE AND PI3 KINASE INHIBITORS, AND THEIR SYNTHESES” (priority 2008, published 2009)
